Test results reported in patent US20250018066A1, “Ophthalmic dye composition” (Vitreq B.V., priority 2016, published 2025).

Tests used:
[1] = Viscosity of dye solutions; assay type: physicochemical
Protocol: (§1) Density and viscosity can be changed by the addition of diglycerol or a gadolinium complex or a combination of both. For sinking of the dye solution to the bottom of the eye, density is more important than viscosity; the latter reduces, however, possible mixing for solutions which sink slowly. The density of dye solutions can be increased from 1.003 grams per milliliter (at 25° C.) to 1.028, when 10 volume % of a 0.5 M solution of gadopentetate is added to a final concentration of gadopentetate of 0.05 M, and to 1.048 when 20 volume % of a 0.5 M solution of gadopentetate is added to a final concentration of 0.10 M. The resulting viscosities are 1.125 mPa·s and 1.258 mPa·s, respectively. For a 5% addition of named gadopentetate solution, a density of 1.016 gram per milliliter and a viscosity of 1.117 mPa·s is obtained.

Density of dye solutions = assay type: physicochemical
Protocol: as §1

[2] = Osmotic pressure contribution of density-increasing agent; assay type: physicochemical; settings: in words
retina = test: Staining of porcine retina with dye preparations, contrast quantified from photographs; settings: in words; compared with prior art agents like PEG
Description: The eyes were kept on ice until used.
The upper part of the eye, including the cornea, iris, and lens, was removed with an orbital section. The vitreous body was removed to get access to the retina. The retina was rinsed three times with phosphate-buffered saline (PBS). Dye solutions were applied to the retina for 30 seconds, and the retina was then washed three times with PBS.
As an example of the visual impression of the stained retina, photos were taken. For photographic recording of the result of the staining, the staining was limited by applying a glass tube of a diameter of 10 mm. Care was taken that no dye could reach the cellular layer of the retina. […]
As an example of quantification, the pictures in FIGS. 1A-J were quantified by measuring the optical densities (expressed as grey values on a scale from 0 (black) to 255 (white)) of a rectangular area within the stained portion of the retina and a rectangular area outside the stained portion as background (ensuring that no blood vessels where present in the rectangular areas), and calculating the ratio of the grey values of the background to that of the stain. […] Toxicity was measured in ARPE cells. […] Toxicity is expressed as percent reduction of cell viability in comparison to a control incubated with PBS instead of the dye solution.

[3] = 10 volume % of 0.5 M solution added, final concentration 0.05 M
[4] = 20 volume % of 0.5 M solution added, final concentration 0.10 M

| Compound | viscosity ([1]; addition of 5 weight percent) | density (Density of dye solutions; addition of 5 weight percent) | osmotic pressure / osmotic activity [2] | osmotic pressure / osmotic activity ([2]; listed as DG) | effect of density agent on staining efficiency (retina) | viscosity ([1]; 5% addition of 0.5 M solution) | viscosity [1, 3] | viscosity [1, 4] | density (Density of dye solutions; 5% addition of 0.5 M solution) | density (Density of dye solutions; [3]) | density (Density of dye solutions; [4]) |
| --- | --- | --- | --- | --- | --- | --- | --- | --- | --- | --- | --- |
| OCC(O)COCC(O)CO (stereo not drawn) [diglycerol] | 1.191 mPa·s | 1.020 grams per milliliter | without increasing osmotic pressure substantially | not even osmotically active | does not decrease staining efficiency |  |  |  |  |  |  |
| O=C([O-])CN(CCN(CC(=O)[O-])CC(=O)O)CCN(CC(=O)[O-])CC(=O)O.[Gd+3] [gadopentetate] |  |  |  |  |  | 1.117 mPa·s | 1.125 mPa·s | 1.258 mPa·s | 1.016 gram per milliliter | 1.028 grams per milliliter | 1.048 grams per milliliter |
| OCC(O)COCC(O)COCC(O)CO (stereo not drawn) [triglycerol] |  |  | without increasing osmotic pressure substantially |  |  |  |  |  |  |  |  |
